Data on 10 compounds can be found in publication PMC8957989, “Binding Affinity Characterization of Four Antennae-Enriched Odorant-Binding Proteins From Harmonia axyridis (Coleoptera: Coccinellidae)” (Frontiers in Physiology, 2022).

Structures are written as SMILES. Where two headings read alike, the source gives them in different places.

The target in experiment [1] is T1, HaxyOBP15 (Harmonia axyridis, UniProt A0A8K1AM29). Put plainly: Fluorescent probe binding (titration of protein with probe). The note with it: probe titrated to 2-16 μM, Tris-HCl 50 mM pH 7.4; read-out: dissociation constant of probe with HaxyOBP15. The protocol:
A Cary Eclipse Fluorescence Spectrophotometer (Agilent Technologies, United States) was used to determine the results of the binding assay. N-phenyl-1-naphthylamine (1-NPN) for HaxyOBP15 and 4,4′-Dianilino-1,1′-binaphthyl-5,5′-disulfonic acid dipotassium salt (bis-ANS) for HaxyOBP3, 5, and 12 were chosen as the fluorescent probe. The excitation wavelength was 337 nm of 1-NPN and 295 nm of bis-ANS, and the emission spectrum was recorded between 350 and 500 nm for 1-NPN and between 300 and 550 nm for bis-ANS. The recombinant proteins prepared in Tris–HCl (50 mM, pH 7.4) was titrated with aliquots of 1 mM 1-NPN or bis-ANS to final concentrations ranging from 2 to 16 μM to measure the binding affinity. To further measure the binding affinity of ligands to HaxyOBPs, proteins and fluorescent probe at 2 μM were titrated with aliquots of 1 mM odorants. The binding constant (K1-NPN/bis-ANS) of 1-NPN or bis-ANS to HaxyOBPs was calculated by GraphPad Prism 5 software (GraphPad Software Inc.) with the equation Ki = [IC50]/(1 + [1-NPN]/K1-NPN) or [IC50]/(1 + [bis-ANS]/Kbis-ANS), where [1-NPN]/[bis-ANS] is the free concentration of 1-NPN/bis-ANS, and K1-NPN/Kbis-ANS is the dissociation constant of the protein/1-NPN (bis-ANS).

Experiment [2] deals with T1, HaxyOBP15. Put plainly: Competitive fluorescence binding assay (1-NPN probe). The note with it: for Ki: Ki = [IC50]/(1 + [1-NPN]/K1-NPN). As to the method: (§1) The positive plasmid was then transformed into BL21 (DE3) cells for the expression of recombinant proteins, and proteins induced with 0.5 mmol/L isopropyl β-D-1-thiogalactopyranoside (IPTG) for 4 h at 37°C (HaxyOBP3) or 16 h at 15°C (HaxyOBP5, 12, and 15). […] Inclusion bodies were denatured by 8 M urea.
(§2) Protein purification was performed with His-Tag Purification Resin column (Genscript Biology Company, Nanjing, Jiangsu, China) and purified by gradient imidazole buffer (20, 50, 100, 250, and 500 mmol·L^−1). The purity and size of proteins were detected by SDS-PAGE, and concentrations of proteins were measured with bicinchoninic acid (BCA) Protein Assay Kit (ThermoFisher Scientific-Life Technologies, Carlsbad, CA, United States).
(§3) A Cary Eclipse Fluorescence Spectrophotometer (Agilent Technologies, United States) was used to determine the results of the binding assay. N-phenyl-1-naphthylamine (1-NPN) for HaxyOBP15 and 4,4′-Dianilino-1,1′-binaphthyl-5,5′-disulfonic acid dipotassium salt (bis-ANS) for HaxyOBP3, 5, and 12 were chosen as the fluorescent probe.

Experiment [3] deals with HaxyOBP5 (Harmonia axyridis, UniProt A0A8J9RUK3). Put plainly: Competitive fluorescence binding assay (bis-ANS probe). As to conditions: for Ki: Ki = [IC50]/(1 + [bis-ANS]/Kbis-ANS). As to the method:
as §1, §2, §3

Experiment [4] concerns the target HaxyOBP12 (Harmonia axyridis, UniProt A0A8K1AMY0). The experiment is described as above. As to conditions: recombinant protein and bis-ANS at 2 μM, Tris-HCl 50 mM pH 7.4; for Ki: Ki = [IC50]/(1 + [bis-ANS]/Kbis-ANS). The protocol: as §1, §2, §3
The target of experiment [5] is HaxyOBP3 (Harmonia axyridis, UniProt A0A8K1AM44). Described as above. The note with it: recombinant protein and bis-ANS at 2 μM, Tris-HCl 50 mM pH 7.4; for Ki: Ki = [IC50]/(1 + [bis-ANS]/Kbis-ANS). As to the method:
as §1, §2, §3

Setting [6] is: recombinant protein and 1-NPN at 2 μM, Tris-HCl 50 mM pH 7.4.
Where [7] appears, read: recombinant protein and 1-NPN at 2 μM, Tris-HCl 50 mM pH 7.4, read-out: HaxyOBP15 IC50.
Setting [8] is: HaxyOBP5 Ki, recombinant protein and bis-ANS at 2 μM, Tris-HCl 50 mM pH 7.4.

Sequence of HaxyOBP3 (A0A8K1AM44 entry or part of it): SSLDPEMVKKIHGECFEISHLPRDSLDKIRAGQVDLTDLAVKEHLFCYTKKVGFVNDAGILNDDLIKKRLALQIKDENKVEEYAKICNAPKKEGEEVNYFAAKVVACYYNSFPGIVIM
T1 sequence (A0A8K1AM29 entry or part of it): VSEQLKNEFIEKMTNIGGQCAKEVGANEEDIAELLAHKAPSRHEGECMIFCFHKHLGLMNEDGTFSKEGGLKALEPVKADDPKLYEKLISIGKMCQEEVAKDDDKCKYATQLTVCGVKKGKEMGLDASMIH
Sequence of HaxyOBP5 (A0A8J9RUK3 entry or part of it): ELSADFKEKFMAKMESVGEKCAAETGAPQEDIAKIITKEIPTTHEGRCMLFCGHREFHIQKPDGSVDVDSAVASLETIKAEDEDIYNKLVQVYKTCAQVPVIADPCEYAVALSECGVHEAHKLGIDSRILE
Sequence of HaxyOBP12 (A0A8K1AMY0 entry or part of it): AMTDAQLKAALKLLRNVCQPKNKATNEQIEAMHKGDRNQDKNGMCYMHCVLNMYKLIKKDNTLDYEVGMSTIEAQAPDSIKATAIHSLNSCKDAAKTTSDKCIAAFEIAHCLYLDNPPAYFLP

As to `c1ccc(Nc2cccc3ccccc23)cc1` [1-NPN, N-phenyl-1-naphthylamine], in experiment [1], the Kd is 5.07 ± 0.31 µM.

On to `C=CC(=C)CC/C=C(\C)CCC=C(C)C` [(E)-β-Farnesene], for which, in experiment [2] (setting [6]), the Ki came out at 4.33 ± 0.4 µM. The IC50 in experiment [2] (setting [7]) amounted to 5.81 ± 0.46 µM.

With `CC(=O)CCC1=C(C)CCCC1(C)C` [Dihydro-β-ionone], in experiment [2] (setting [6]), the Ki came to 24 ± 2.65 µM. For the same compound, the IC50 in experiment [2] (setting [7]) is 30.9 ± 3.01 µM.

With `CC(=O)OC/C=C(\C)CCC=C(C)C` [Geranyl acetate], the Ki in experiment [2] (setting [6]) is 23.4 ± 3.04 µM. For the same compound, the IC50 in experiment [2] (setting [7]) worked out at 30.3 ± 3.58 µM.

In experiment [2], `C=CC(C)(CCC=C(C)C)OC(C)=O` (stereo not drawn) [Linalyl acetate] returned an IC50 of 40 ± 2.91 µM.

`COC(=O)c1ccccc1O` [Methyl salicylate]: the Ki was determined as 11.7 µM in experiment [3] (setting [8]); 18.1 ± 1.33 µM in experiment [3] (recombinant protein and bis-ANS at 2 μM, Tris-HCl 50 mM pH 7.4, read-out: HaxyOBP5 Ki). For the same compound, the half-inhibitory concentration (IC50) in experiment [3] (recombinant protein and bis-ANS at 2 μM, Tris-HCl 50 mM pH 7.4, read-out: HaxyOBP5 IC50) turned out to be 26.4 ± 1.96 µM.

Take `CCCCCCCCC=O` [Nonyl aldehyde]: the Ki in experiment [2] (setting [6]) was 29.6 ± 1.86 µM. In experiment [2] (setting [7]), the IC50 was found to be 38.5 ± 2.03 µM.

In the case of `COc1ccc(C=O)cc1` [p-Anisaldehyde], the IC50 in experiment [4] turned out to be 25.5 ± 1.99 µM; in experiment [3] it was 19.9 ± 0.7 µM; in experiment [5], 34.1 ± 1.06 µM. For the same compound, the Ki in experiment [4] stood at 16.1 ± 1.21 µM; in experiment [3] (setting [8]), 13.4 ± 0.67 µM; in experiment [5] it was 24.4 ± 0.37 µM.

As to `CC(=O)/C=C/C1C(C)=CCCC1(C)C` (stereo not drawn) [α-Ionone], the IC50 in experiment [2] was found to be 12 ± 0.56 µM.

Turning to `CC(=O)/C=C/C1=C(C)CCCC1(C)C` [β-Ionone], the IC50 in experiment [4] was determined as 24 ± 1.56 µM; in experiment [3], 17.8 ± 1.52 µM; in experiment [5], 25.9 ± 2.85 µM; in experiment [2], 6.99 ± 0.21 µM. Also, the figures for the inhibitory constant (Ki) in experiment [4], in experiment [3] (setting [8]) and in experiment [5] were 15.2 ± 1.06 µM, 11.7 ± 0.86 µM and 18.8 ± 2.14 µM, respectively.
